This is an account of results in patent US10611730B2, “Benzimidazolone and benzothiazolone compounds and their use as AMPA receptor modulators” (Janssen Pharmaceutica NV, priority 2015, dated 2020).

The target in the assay is TARP γ8 dependent AMPA receptor (GluA1o-g8 fusion channel) (Homo sapiens (Human), UniProt P42261+Q8WXS5). The assay is described as follows: Calcium flux assay (FLIPR), HEK293 cells expressing GRIA1o-CACNG8 fusion. Conditions: inhibition of calcium flux after 15 μM glutamate, read-out: GluR1-γ8 pIC50 (converted). Type of assay: cell-based. A digest of the protocol: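 Stable HEK293 clone expressing GluA1o-γ8 fusion (1:1 stoichiometry), loaded with Calcium-5/6 dye plus test compound; glutamate-evoked fluorescence normalized to control wells. Concentration-response fitted to four-parameter logistic, midpoint taken as inhibitory potency.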
Sequence of TARP γ8 dependent AMPA receptor (GluA1o-g8 fusion channel) (P42261 other isoform, or with tags, fused parts or gaps): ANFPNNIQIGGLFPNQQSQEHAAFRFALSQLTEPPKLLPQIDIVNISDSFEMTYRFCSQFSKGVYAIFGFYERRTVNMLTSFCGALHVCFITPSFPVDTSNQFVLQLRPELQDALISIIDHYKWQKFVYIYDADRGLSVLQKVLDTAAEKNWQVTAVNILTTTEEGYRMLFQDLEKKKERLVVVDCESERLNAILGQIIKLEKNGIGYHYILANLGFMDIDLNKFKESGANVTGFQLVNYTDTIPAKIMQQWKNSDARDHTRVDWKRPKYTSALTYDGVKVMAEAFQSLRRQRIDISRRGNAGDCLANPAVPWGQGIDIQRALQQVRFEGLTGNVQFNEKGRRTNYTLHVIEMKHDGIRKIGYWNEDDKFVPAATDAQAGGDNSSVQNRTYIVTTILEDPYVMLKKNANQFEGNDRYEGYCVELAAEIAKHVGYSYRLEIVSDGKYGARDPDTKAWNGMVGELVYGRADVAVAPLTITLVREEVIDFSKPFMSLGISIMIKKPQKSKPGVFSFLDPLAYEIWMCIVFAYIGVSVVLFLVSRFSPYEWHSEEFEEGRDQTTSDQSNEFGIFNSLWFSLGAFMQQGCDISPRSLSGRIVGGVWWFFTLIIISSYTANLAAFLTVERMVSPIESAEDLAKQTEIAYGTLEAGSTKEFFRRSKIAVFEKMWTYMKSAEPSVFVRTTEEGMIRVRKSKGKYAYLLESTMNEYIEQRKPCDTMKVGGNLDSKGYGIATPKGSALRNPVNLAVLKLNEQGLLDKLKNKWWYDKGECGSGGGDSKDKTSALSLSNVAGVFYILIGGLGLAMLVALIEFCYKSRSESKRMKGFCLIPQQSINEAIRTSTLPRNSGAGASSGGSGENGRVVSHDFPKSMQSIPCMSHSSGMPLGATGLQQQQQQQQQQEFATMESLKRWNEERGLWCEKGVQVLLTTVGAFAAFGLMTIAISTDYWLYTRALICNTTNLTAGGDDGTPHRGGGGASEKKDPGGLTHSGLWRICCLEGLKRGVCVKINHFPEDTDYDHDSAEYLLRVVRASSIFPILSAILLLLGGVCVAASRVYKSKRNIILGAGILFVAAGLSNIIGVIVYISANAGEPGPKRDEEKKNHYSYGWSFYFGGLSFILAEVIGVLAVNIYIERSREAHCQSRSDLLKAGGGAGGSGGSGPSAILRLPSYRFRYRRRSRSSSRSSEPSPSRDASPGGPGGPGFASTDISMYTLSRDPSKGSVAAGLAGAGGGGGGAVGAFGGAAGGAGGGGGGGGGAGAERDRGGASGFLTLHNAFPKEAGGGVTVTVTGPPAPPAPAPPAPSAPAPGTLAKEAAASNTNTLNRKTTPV
`O=c1[nH]c2ccc(-c3c(Cl)cccc3CN3CCOCC3)cc2[nH]1` [Example 145, 5-[2-Chloro-6-(morpholinomethyl)phenyl]-1,3-dihydrobenzimidazol-2-one]: the IC50 was 1000 nM.

Take `CC(C)(C)OC(=O)N1CCC=C(c2cccc(-c3ccc4[nH]c(=O)[nH]c4c3)c2Cl)C1` [Example 186, tert-Butyl 5-[2-chloro-3-(2-oxo-1,3-dihydrobenzimidazol-5-yl)phenyl]-3,6-dihydro-2H-pyridine-1-carboxylate]: the IC50 is 6.31 nM.

In the case of `O=c1[nH]c2ccc(-c3cccc(CN4CCCCC4)c3Cl)cc2[nH]1` [Example 142, 5-[2-Chloro-3-(1-piperidylmethyl)phenyl]-1,3-dihydrobenzimidazol-2-one], the IC50 was 631 nM.

In the case of `COc1cccc(OC(C)(C)C)c1-c1ccc2[nH]c(=O)[nH]c2c1` [Example 117, 5-(2-tert-Butoxy-6-methoxy-phenyl)-1,3-dihydrobenzimidazol-2-one], the IC50 was 1000 nM.

On to `O=c1[nH]c2ccc(-c3c(Cl)cccc3OC(F)F)cc2[nH]1` [Example 94, 5-[2-Chloro-6-(difluoromethoxy)phenyl]-1,3-dihydrobenzimidazol-2-one], for which the IC50 was 31.6 nM.

`CC(C)Oc1ccc(Cl)cc1-c1ccc2[nH]c(=O)[nH]c2c1` [Example 16, 5-(5-Chloro-2-isopropoxy-phenyl)-1,3-dihydrobenzimidazol-2-one]: the IC50 is 316 nM.

Take `N#CCc1ccccc1-c1ccc2[nH]c(=O)[nH]c2c1` [Example 41, 2-[2-(2-Oxo-1,3-dihydrobenzimidazol-5-yl)phenyl]acetonitrile]: the IC50 is 501 nM.

As for `CC(C)Oc1c(Cl)cccc1-c1ccc2[nH]c(=O)[nH]c2c1` [Example 115, 5-(3-Chloro-2-isopropoxy-phenyl)-1,3-dihydrobenzimidazol-2-one], the IC50 was 2000 nM.

Take `COCCn1cc(-c2cccc(Cl)c2-c2ccc3[nH]c(=O)[nH]c3c2)cn1` [Example 172, 5-[2-Chloro-6-[1-(2-methoxyethyl)pyrazol-4-yl]phenyl]-1,3-dihydrobenzimidazol-2-one]: the IC50 was 2000 nM.

For `Cc1c(C(=O)N(C)C)cccc1-c1ccc2[nH]c(=O)[nH]c2c1` [Example 81, N,N,2-Trimethyl-3-(2-oxo-1,3-dihydrobenzimidazol-5-yl)benzamide], the IC50 was 3160 nM.

For `Cc1nnc(-c2cccc(-c3ccc4[nH]c(=O)[nH]c4c3)c2C)o1` [Example 195, 5-[2-Methyl-3-(5-methyl-1,3,4-oxadiazol-2-yl)phenyl]-1,3-dihydrobenzimidazol-2-one], the IC50 was 2510 nM.

In the case of `O=c1[nH]c2ccc(-c3cc(Cl)ccc3Cl)cc2[nH]1` [Example 18, 5-(2,5-Dichlorophenyl)-1,3-dihydrobenzimidazol-2-one], the IC50 was 251 nM.

On to `Cn1ccc(-c2cccc(-c3ccc4[nH]c(=O)[nH]c4c3)c2Cl)n1` [Example 183, 5-[2-Chloro-3-(1-methylpyrazol-3-yl)phenyl]-1,3-dihydrobenzimidazol-2-one], for which the IC50 was 1580 nM.

Turning to `Cc1c(-c2ccc3[nH]c(=O)sc3c2)cccc1-c1ncon1` [Example 207, 6-[2-Methyl-3-(1,2,4-oxadiazol-3-yl)phenyl]-3H-1,3-benzothiazol-2-one], the IC50 was 126 nM.

`COc1cccc(Cl)c1-c1ccc2[nH]c(=O)[nH]c2c1` [Example 20, 5-(2-Chloro-6-methoxy-phenyl)-1,3-dihydrobenzimidazol-2-one]: the IC50 is 251 nM.

`COC1CCN(c2cccc(-c3ccc4[nH]c(=O)sc4c3)c2Cl)CC1` [Example 213, 6-(2-Chloro-3-(4-methoxypiperidin-1-yl)phenyl)benzo[d]thiazol-2(3H)-one]: the IC50 is 2510 nM.

For the molecule `CN1CCN(Cc2cccc(Cl)c2-c2ccc3[nH]c(=O)[nH]c3c2)CC1` [Example 146, 5-[2-Chloro-6-[(4-methylpiperazin-1-yl)methyl]phenyl]-1,3-dihydrobenzimidazol-2-one], the IC50 is 7940 nM.

Regarding `Cc1cccc(-c2ccc3[nH]c(=O)[nH]c3c2)c1Cl` [Example 64, 5-(2-Chloro-3-methyl-phenyl)-1,3-dihydrobenzimidazol-2-one], the IC50 was 100 nM.

In the case of `Cc1ccc(Cl)cc1-c1ccc2[nH]c(=O)[nH]c2c1` [Example 10, 5-(5-Chloro-2-methyl-phenyl)-1,3-dihydrobenzimidazol-2-one], the IC50 is 251 nM.

For the molecule `COc1cccc(OC(C)C(F)(F)F)c1-c1ccc2[nH]c(=O)[nH]c2c1` (racemic) [Example 121, (±)-5-[2-Methoxy-6-(2,2,2-trifluoro-1-methyl-ethoxy)phenyl]-1,3-dihydrobenzimidazol-2-one], the IC50 is 158 nM.

Turning to `O=c1[nH]c2ccc(-c3ccccc3Br)cc2[nH]1` [Example 35, 5-(2-Bromophenyl)-1,3-dihydrobenzimidazol-2-one], the IC50 is 251 nM.

On to `Cc1c(-c2ccc3[nH]c(=O)[nH]c3c2)cccc1-c1nc(C(F)(F)F)no1` [Example 205, 5-[2-Methyl-3-[3-(trifluoromethyl)-1,2,4-oxadiazol-5-yl]phenyl]-1,3-dihydrobenzimidazol-2-one], for which the IC50 was 39.8 nM.

For the molecule `Cc1cccc(-c2ccc3[nH]c(=O)[nH]c3c2)c1C` [Example 1, 5-(2,3-Dimethylphenyl)-1,3-dihydrobenzimidazol-2-one], the IC50 is 251 nM.

For the molecule `O=c1[nH]c2ccc(-c3cccc(OCC(F)F)c3Cl)cc2[nH]1` [Example 112, 5-[2-Chloro-3-(2,2-difluoroethoxy)phenyl]-1,3-dihydrobenzimidazol-2-one], the IC50 is 126 nM.

For `Cc1c(-c2ccc3[nH]c(=O)[nH]c3c2)cccc1-c1nnc(C2CC2)o1` [Example 197, 5-[3-(5-Cyclopropyl-1,3,4-oxadiazol-2-yl)-2-methyl-phenyl]-1,3-dihydrobenzimidazol-2-one], the IC50 is 398 nM.

Turning to `O=c1[nH]c2ccc(-c3c(Cl)cccc3C(F)(F)F)cc2[nH]1` [Example 12, 5-[2-Chloro-6-(trifluoromethyl)phenyl]-1,3-dihydrobenzimidazol-2-one], the IC50 is 631 nM.

Turning to `Cc1cccc(-c2ccc(F)cc2)c1-c1ccc2[nH]c(=O)[nH]c2c1` [Example 181, 5-[2-(4-Fluorophenyl)-6-methyl-phenyl]-1,3-dihydrobenzimidazol-2-one], the IC50 is 100 nM.

Turning to `Cc1c(CN2CCOCC2C)cccc1-c1ccc2[nH]c(=O)[nH]c2c1` (stereo in doubt) [Example 152, (3R)-5-[2-Methyl-3-[[3-methylmorpholin-4-yl]methyl]phenyl]-1,3-dihydrobenzimidazol-2-one], the IC50 is 1000 nM.

As to `Cc1cc(-c2c(Cl)cccc2OC(F)(F)F)cc2[nH]c(=O)[nH]c12` [Example 211, 6-(2-Chloro-6-(trifluoromethoxy)phenyl)-4-methyl-1H-benzo[d]imidazol-2(3H)-one], the IC50 is 0.1 nM.

Consider `COc1cccc(-c2cccc3cccnc23)c1-c1ccc2[nH]c(=O)[nH]c2c1` [Example 182, 5-[2-Methoxy-6-(8-quinolyl)phenyl]-1,3-dihydrobenzimidazol-2-one], for which the IC50 is 1580 nM.

In the case of `O=c1[nH]c2ccc(-c3c(Cl)ccc(-c4nnco4)c3Cl)cc2[nH]1` [Example 192, 5-[2,6-Dichloro-3-(1,3,4-oxadiazol-2-yl)phenyl]-1,3-dihydrobenzimidazol-2-one], the IC50 was 631 nM.

`COc1cccc(OC)c1-c1ccc2[nH]c(=O)[nH]c2c1` [Example 7, 5-(2,6-Dimethoxyphenyl)-1,3-dihydrobenzimidazol-2-one]: the IC50 is 1260 nM.

For `Cc1c(CN2CCSCC2)cccc1-c1ccc2[nH]c(=O)[nH]c2c1` [Example 154, 5-[2-Methyl-3-(thiomorpholinomethyl)phenyl]-1,3-dihydrobenzimidazol-2-one], the IC50 was 200 nM.

For the molecule `O=c1[nH]c2ccc(-c3c(F)cccc3OCc3ccccc3)cc2[nH]1` [Example 26, 5-(2-Benzyloxy-6-fluoro-phenyl)-1,3-dihydrobenzimidazol-2-one], the IC50 was 100 nM.

Take `N#CCc1cccc(Cl)c1-c1ccc2[nH]c(=O)sc2c1` [Example 133, 2-[3-Chloro-2-(2-oxo-3H-1,3-benzothiazol-6-yl)phenyl]acetonitrile]: the IC50 was 3.16 nM.

`Cc1cccc(-c2ccccc2F)c1-c1ccc2[nH]c(=O)[nH]c2c1` [Example 180, 5-[2-(2-Fluorophenyl)-6-methyl-phenyl]-1,3-dihydrobenzimidazol-2-one]: the IC50 is 316 nM.

Consider `O=c1[nH]c2ccc(-c3c(Cl)cccc3OCC3CC3)cc2[nH]1` [Example 92, 5-[2-Chloro-6-(cyclopropylmethoxy)phenyl]-1,3-dihydrobenzimidazol-2-one], for which the IC50 is 10 nM.

For the molecule `N#CCOc1cccc(Cl)c1-c1ccc2[nH]c(=O)[nH]c2c1` [Example 97, 2-[3-Chloro-2-(2-oxo-1,3-dihydrobenzimidazol-5-yl)phenoxy]acetonitrile], the IC50 is 316 nM.

For `O=c1[nH]c2ccc(-c3cccc(-c4nnco4)c3Cl)cc2[nH]1` [Example 190, 5-[2-Chloro-3-(1,3,4-oxadiazol-2-yl)phenyl]-1,3-dihydrobenzimidazol-2-one], the IC50 is 2000 nM.

For the molecule `O=c1[nH]c2ccc(-c3c(Cl)cccc3-c3cncc(F)c3)cc2[nH]1` [Example 166, 5-[2-Chloro-6-(5-fluoro-3-pyridyl)phenyl]-1,3-dihydrobenzimidazol-2-one], the IC50 was 63.1 nM.

On to `O=c1[nH]c2ccc(-c3cccc(CN4CCOC(C(F)(F)F)C4)c3Cl)cc2[nH]1` (racemic) [Example 144, (±)-5-[2-Chloro-3-[[2-(trifluoromethyl)morpholin-4-yl]methyl]phenyl]-1,3-dihydrobenzimidazol-2-one], for which the IC50 was 126 nM.

For `COc1cccc(OC(C)C)c1-c1ccc2[nH]c(=O)[nH]c2c1` [Example 28, 5-(2-Isopropoxy-6-methoxy-phenyl)-1,3-dihydrobenzimidazol-2-one], the IC50 is 79.4 nM.
